# Target: T1, Tyrosine-protein phosphatase non-receptor type 11 (Homo sapiens, UniProt Q06124)
# T1 sequence (Q06124 whole entry): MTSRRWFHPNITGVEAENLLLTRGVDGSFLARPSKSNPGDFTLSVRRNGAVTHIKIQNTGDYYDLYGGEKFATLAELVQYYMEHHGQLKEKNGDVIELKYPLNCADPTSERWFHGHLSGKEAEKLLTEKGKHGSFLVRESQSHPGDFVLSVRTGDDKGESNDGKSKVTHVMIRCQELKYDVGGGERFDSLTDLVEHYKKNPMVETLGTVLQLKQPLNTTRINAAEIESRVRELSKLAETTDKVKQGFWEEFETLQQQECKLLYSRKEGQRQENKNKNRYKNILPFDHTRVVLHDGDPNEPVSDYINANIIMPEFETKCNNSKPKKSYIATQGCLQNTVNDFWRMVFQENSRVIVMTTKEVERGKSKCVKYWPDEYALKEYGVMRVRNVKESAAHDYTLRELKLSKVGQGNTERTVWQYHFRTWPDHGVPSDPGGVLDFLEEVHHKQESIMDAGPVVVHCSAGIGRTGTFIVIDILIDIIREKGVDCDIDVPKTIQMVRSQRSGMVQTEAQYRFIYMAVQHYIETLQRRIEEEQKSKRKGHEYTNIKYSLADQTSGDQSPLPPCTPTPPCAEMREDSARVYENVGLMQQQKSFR
# Experiment: Biochemical Assay: The inhibition of SHP2 by compounds of the invention was monitored using the surrogate substrate DiFMUP after protein activation by a peptide bearing two appropriately spaced phosphotyrosine. Full length SHP2 protein (Recombinant HumanSHP-2, E. coli derived Ser2Arg593, N-terminal 6His tag from R&D systems; […]) was incubated with activating peptide, IRSI_2pY (New England …
row,SMILES,IC50 [nM]
1,Cc1nc(N2CCC3(CCCC3CN)CC2)cc(=O)n1-c1cccc(Cl)c1Cl (configuration not stated),2100
2,Cc1nc(N2CCC(C)(CN)CC2)cc(=O)n1-c1cccc(C(F)(F)F)c1Cl,1500

# Reference: ChEMBL document CHEMBL5728451, “Pyrimidinone derivatives as SHP2 antagonists” (2021)
